Where two headings read alike, the source gives them in different places. Numbered stars: 1 amine (or outer) side, 2 acyl side, 3 side chain; on linkers, the order of the positions; unused ones are H or OH. Square brackets hold non-standard residues; d marks the D form. Peptide text beside a SMILES is read from it. * marks the point of attachment. ξ: configuration not given here. ξAbu(4,4-F2)ψ(COCO) = O=C(C(=O)[*:2])C(CC(F)F)N[*:1]; Dip = N[C@H](C(=O)O)C(c1ccccc1)c1ccccc1; X6 = O=C(NS(=O)(=O)c1ccccc1)C(CC(F)F)N*; X5 = O=C(c1nc2ccccc2s1)C(CC(F)F)N*; X8 = O=C(c1nc2ccccc2o1)C(CC(F)F)N*; X1 = O=C(c1ncc[nH]1)C(CC(F)F)N*; ξAla(CF3) = NC(CC(F)(F)F)C(=O)O; Cha = N[C@@H](CC1CCCCC1)C(=O)O; Ile(3ξ) = CCC(C)[C@H](N)C(=O)O; X3 = O=C(C(CC(F)F)N[*:1])[*:2]; Suc = O=C(CCC(=O)[*:2])[*:1]; X2 = O=C(c1ccco1)C(CC(F)F)N*; X4 = COC(=O)C(=O)C(CC(F)F)N*; X7 = O=C(c1nccs1)C(CC(F)F)N*; X9 = O=C(O)CC(CC(F)F)N*; NHBn = c1ccc(CN*)cc1
Molecular target: T1, HCV NS3 protease (Hepatitis C virus genotype 1b, UniProt P26663)
T1 construct: an NS3/4A complex comprising the NS3 protease domain
Assay: Inhibition of NS3 protease (HPLC cleavage assay, NS3/4A complex with Pep4AK, substrate peptide 4AB)
Assay type: biochemical
Method: Buffer solutions containing 80 μM Pep4AK were preincubated for 10 minutes with 10-200 nM protease and reactions were started by addition of substrate. Six duplicate data points at different substrate concentrations were used to calculate kinetic parameters. Incubation times were chosen in order to obtain <7% substrate conversion and reactions were stopped by addition of 40 μl 1% TFA. Cleavage of peptide substrates was determined by HPLC using a Merck-Hitachi chromatograph equipped with an autosampler. 80 μl samples were injected on a Lichrospher C18 reversed phase cartridge column (4×74 mm, 5 μm, Merck) and fragments were separated using a 10-40% acetonitrile gradient a 5%/min using a flow rate of 2.5 ml/min. Peak detection was accomplished by monitoring both the absorbance at 220 nm and tyrosine fluorescence (λex=260 nm, λem=305 nm). Cleavage products were quantitated by integration of chromatograms with respect to appropriate standards. Kinetic parameters were calculated from nonlinear least-squares fit of initial rates as a function of substrate concentration with the help of a Kaleidagraph software, assuming Michaelis-Menten kinetics.
Ki values of peptide inhibitors were calculated from substrate titration experiments performed in the presence of increasing amounts of inhibitor. Experimental data sets were simultaneously fitted to eq.1 using a multicurve fit macro with the help of a Sigmaplot software: V=(VmaxS)/(Km(1+[…])+S); (eq.1)
Alternatively, Ki values were derived from IC50 values, calculated using a four-parameter logistic function, according to eq.2: IC50−(1+S/Km)Ki (eq.2)

[1] = Table 1 hexapeptides, cells printed in nM, read-out: IC50
[2] = Table 3 capped dipeptide keto acids, read-out: IC50
[3] = Table 4 indoline keto acids and related, read-out: IC50
[4] = Table 1 hexapeptides, cells printed in μM, read-out: IC50

T1 sequence (P26663 1027-1208, other chains not shown): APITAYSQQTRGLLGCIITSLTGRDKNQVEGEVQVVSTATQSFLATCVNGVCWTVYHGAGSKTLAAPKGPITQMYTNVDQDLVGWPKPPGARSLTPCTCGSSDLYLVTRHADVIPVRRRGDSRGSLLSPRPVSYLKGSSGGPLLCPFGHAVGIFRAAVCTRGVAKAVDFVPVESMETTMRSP

Row | Structure (SMILES) | IC50 [2] | IC50 [3] | other results
1 | CC(=O)N[C@@H](CC(=O)O)C(=O)N[C@@H](CCC(=O)O)C(=O)N[C@H](C(=O)N[C@@H](CCC(=O)O)C(=O)N[C@@H](CC1CCCCC1)C(=O)NC(C=O)CC(F)F)C(c1ccccc1)c1ccccc1 (single isomer, unassigned) [Compound 1c (L)] | – | – | IC50 [1]: 0.5 nM
2 | CC(C)C[C@H](NC(=O)OCc1ccccc1)C(=O)NC(CC(F)F)C(=O)C(=O)O (single isomer, unassigned) [Compound 7a] | 74000 nM | – | –
3 | CCCCC(=O)N[C@@H](CC(C)C)C(=O)NC(CC(F)F)C(=O)C(=O)O (single isomer, unassigned) [Compound 7b] | 56000 nM | – | –
4 | CC(C)C[C@H](NC(=O)CN(CC(=O)O)C(=O)OCc1ccccc1)C(=O)NC(CC(F)F)C(=O)C(=O)O (single isomer, unassigned) [Compound 7i] | 20000 nM | – | –
5 | CC(C)C[C@H](NC(=O)CC1(CC(=O)O)CCCC1)C(=O)NC(CC(F)F)C(=O)C(=O)O (single isomer, unassigned) [Compound 7l] | 1000 nM | – | –
6 | CC(C)C[C@H](NC(=O)CC1(CC(=O)O)OCCO1)C(=O)NC(CC(F)F)C(=O)C(=O)O (single isomer, unassigned) [Compound 7p] | 15000 nM | – | –
7 | CC(C)C[C@H](NC(=O)C1CCCCC1C(=O)O)C(=O)NC(CC(F)F)C(=O)C(=O)O (single isomer, unassigned) [Compound 8a] | 32000 nM | – | –
8 | CC(C)C[C@H](NC(=O)Cc1ccccc1CC(=O)O)C(=O)NC(CC(F)F)C(=O)C(=O)O (single isomer, unassigned) [Compound 8b] | 8000 nM | – | –
9 | CC(C)C[C@H](NC(=O)Cc1ccccc1C(=O)O)C(=O)NC(CC(F)F)C(=O)C(=O)O (single isomer, unassigned) [Compound 8e] | 13000 nM | – | –
10 | CC(C)C[C@H](NC(=O)Cc1cccs1)C(=O)NC(CC(F)F)C(=O)C(=O)O (single isomer, unassigned) [Compound 8f] | 42000 nM | – | –
11 | CC(C)C[C@H](NC(=O)c1ccccc1-c1ccccc1C(=O)O)C(=O)NC(CC(F)F)C(=O)C(=O)O (single isomer, unassigned) [Compound 8g] | 4000 nM | – | –
12 | CC(C)C[C@H](NC(=O)C(Oc1cccc(C(=O)O)c1)c1ccccc1)C(=O)NC(CC(F)F)C(=O)C(=O)O (single isomer, unassigned) [Compound 8h] | 6000 nM | – | –
13 | CC(C)C[C@H](NC(=O)[C@H](O)c1cccs1)C(=O)NC(CC(F)F)C(=O)C(=O)O (single isomer, unassigned) [Compound 8s] | 18000 nM | – | –
14 | CC(C)C[C@H](NC(=O)C1Cc2ccccc2N1)C(=O)NC(CC(F)F)C(=O)C(=O)O (single isomer, unassigned) [Compound 9a] | – | 50000 nM | –
15 | CCC(CC)CC1(C(=O)N[C@@H](CC(C)C)C(=O)NC(CC(F)F)C(=O)C(=O)O)Cc2ccccc2N1 (single isomer, unassigned) [Compound 9g] | – | 15000 nM | –
16 | CC(C)C[C@H](NC(=O)C1(CC2CC2)Cc2ccccc2N1)C(=O)NC(CC(F)F)C(=O)C(=O)O (single isomer, unassigned) [Compound 9i] | – | 20000 nM | –
17 | CC(C)C[C@H](NC(=O)C1(Cc2ccccc2Cl)Cc2ccccc2N1)C(=O)NC(CC(F)F)C(=O)C(=O)O (single isomer, unassigned) [Compound 9q] | – | 5000 nM | –
18 | CC(C)C[C@H](NC(=O)C1(Cc2cccc(C(=O)O)c2)Cc2ccccc2N1)C(=O)NC(CC(F)F)C(=O)C(=O)O (single isomer, unassigned) [Compound 9u] | – | 800 nM | –
19 | COc1ccc2c(c1)NC(C(=O)N[C@@H](CC(C)C)C(=O)NC(CC(F)F)C(=O)C(=O)O)C2 (single isomer, unassigned) [Compound 10a] | – | 25000 nM | –
20 | COc1ccc2c(c1)NC(CC(C)C)(C(=O)N[C@@H](CC(C)C)C(=O)NC(CC(F)F)C(=O)C(=O)O)C2 (single isomer, unassigned) [Compound 10b] | – | 24000 nM | –

Row | Structure (SMILES) | IC50 [2] | IC50 [3] | other results
21 | CC(C)C[C@H](NC(=O)C1Cc2ccc(OC3CCCC3)cc2N1)C(=O)NC(CC(F)F)C(=O)C(=O)O (single isomer, unassigned) [Compound 10e] | – | 18000 nM | –
22 | CC(C)C[C@H](NC(=O)C1Cc2ccc(OCC(=O)O)cc2N1)C(=O)NC(CC(F)F)C(=O)C(=O)O (single isomer, unassigned) [Compound 10f] | – | 10000 nM | –
23 | CC(C)C[C@H](NC(=O)C1Cc2ccc(OC3CCS(=O)(=O)CC3)cc2N1)C(=O)NC(CC(F)F)C(=O)C(=O)O (single isomer, unassigned) [Compound 10i] | – | 30000 nM | –
24 | CC(C)CC1c2ccccc2NC1C(=O)N[C@@H](CC(C)C)C(=O)NC(CC(F)F)C(=O)C(=O)O (single isomer, unassigned) [Compound 12] | – | 26000 nM | –
25 | CC(C)C[C@H](NC(=O)c1cc2ccccc2[nH]1)C(=O)NC(CC(F)F)C(=O)C(=O)O (single isomer, unassigned) [Compound 13] | – | 70000 nM | –
26 | CC(C)C[C@H](NC(=O)c1[nH]c2ccccc2c1OC(C(=O)O)c1cccc(Cl)c1)C(=O)NC(CC(F)F)C(=O)C(=O)O (single isomer, unassigned) [Compound 14] | – | 10000 nM | –
27 | CSCC[C@H](NC(=O)[C@H](CCC(=O)O)NC(=O)[C@H](CC(=O)O)NC(C)=O)C(=O)N[C@@H](CCC(=O)O)C(=O)N[C@@H](CCC(=O)O)C(=O)NC(CC(F)F)C(=O)O (stereo partly drawn) [Compound 1a] (Ac-DEMEE[X3]-OH) | – | – | IC50 (IC50, Table 1 hexapeptides, cell printed without unit): 3000 nM
28 | CC(=O)N[C@@H](CC(=O)O)C(=O)N[C@@H](CCC(=O)O)C(=O)N[C@H](C(=O)N[C@@H](CCC(=O)O)C(=O)N[C@@H](CC1CCCCC1)C(=O)NC(CC(F)F)C(=O)C(=O)O)C(c1ccccc1)c1ccccc1 (stereo partly drawn) [Compound 1d] (Ac-DE[Dip]E[Cha]-{ξAbu(4,4-F2)ψ(COCO)}) | – | – | IC50 [1]: 0.4 nM
29 | CC(=O)N[C@@H](CC(=O)O)C(=O)N[C@@H](CCC(=O)O)C(=O)N[C@H](C(=O)N[C@@H](CCC(=O)O)C(=O)N[C@@H](CC1CCCCC1)C(=O)NC(CC(F)F)C(=O)C(=O)NCc1ccccc1)C(c1ccccc1)c1ccccc1 (stereo partly drawn) [Compound 1e] (Ac-DE[Dip]E[Cha][ξAbu(4,4-F2)ψ(COCO)]-NHBn) | – | – | IC50 [1]: 5 nM
30 | COC(=O)C(=O)C(CC(F)F)NC(=O)[C@H](CC1CCCCC1)NC(=O)[C@H](CCC(=O)O)NC(=O)[C@@H](NC(=O)[C@H](CCC(=O)O)NC(=O)[C@H](CC(=O)O)NC(C)=O)C(c1ccccc1)c1ccccc1 (stereo partly drawn) [Compound 1f] (Ac-DE[Dip]E[Cha]-X4) | – | – | IC50 [1]: 800 nM
31 | CC(=O)N[C@@H](CC(=O)O)C(=O)N[C@@H](CCC(=O)O)C(=O)N[C@H](C(=O)N[C@@H](CCC(=O)O)C(=O)N[C@@H](CC1CCCCC1)C(=O)NC(CC(F)(F)F)C(=O)O)C(c1ccccc1)c1ccccc1 (stereo partly drawn) [Compound 1g] (Ac-DE[Dip]E[Cha][ξAla(CF3)]-OH) | – | – | IC50 [1]: 100 nM
32 | CC(=O)N[C@@H](CC(=O)O)C(=O)N[C@@H](CCC(=O)O)C(=O)N[C@H](C(=O)N[C@@H](CCC(=O)O)C(=O)N[C@@H](CC1CCCCC1)C(=O)NC(CC(=O)O)CC(F)F)C(c1ccccc1)c1ccccc1 (stereo partly drawn) [Compound 1h] (Ac-DE[Dip]E[Cha]-X9) | – | – | IC50 [4]: 3000 nM
33 | CC(=O)N[C@@H](CC(=O)O)C(=O)N[C@@H](CCC(=O)O)C(=O)N[C@H](C(=O)N[C@@H](CCC(=O)O)C(=O)N[C@@H](CC1CCCCC1)C(=O)NC(CC(F)F)C(=O)c1nc2ccccc2s1)C(c1ccccc1)c1ccccc1 (stereo partly drawn) [Compound 1i] (Ac-DE[Dip]E[Cha]-X5) | – | – | IC50 [1]: 150 nM
34 | CC(=O)N[C@@H](CC(=O)O)C(=O)N[C@@H](CCC(=O)O)C(=O)N[C@H](C(=O)N[C@@H](CCC(=O)O)C(=O)N[C@@H](CC1CCCCC1)C(=O)NC(CC(F)F)C(=O)c1nc2ccccc2o1)C(c1ccccc1)c1ccccc1 (stereo partly drawn) [Compound 1j] (Ac-DE[Dip]E[Cha]-X8) | – | – | IC50 [1]: 600 nM
35 | CC(=O)N[C@@H](CC(=O)O)C(=O)N[C@@H](CCC(=O)O)C(=O)N[C@H](C(=O)N[C@@H](CCC(=O)O)C(=O)N[C@@H](CC1CCCCC1)C(=O)NC(CC(F)F)C(=O)c1nccs1)C(c1ccccc1)c1ccccc1 (stereo partly drawn) [Compound 1k] (Ac-DE[Dip]E[Cha]-X7) | – | – | IC50 [4]: 1000 nM
36 | CC(=O)N[C@@H](CC(=O)O)C(=O)N[C@@H](CCC(=O)O)C(=O)N[C@H](C(=O)N[C@@H](CCC(=O)O)C(=O)N[C@@H](CC1CCCCC1)C(=O)NC(CC(F)F)C(=O)c1ncc[nH]1)C(c1ccccc1)c1ccccc1 (stereo partly drawn) [Compound 1l] (Ac-DE[Dip]E[Cha]-X1) | – | – | IC50 [4]: 6000 nM
37 | CC(=O)N[C@@H](CC(=O)O)C(=O)N[C@@H](CCC(=O)O)C(=O)N[C@H](C(=O)N[C@@H](CCC(=O)O)C(=O)N[C@@H](CC1CCCCC1)C(=O)NC(CC(F)F)C(=O)c1ccco1)C(c1ccccc1)c1ccccc1 (stereo partly drawn) [Compound 1m] (Ac-DE[Dip]E[Cha]-X2) | – | – | IC50 [4]: 7000 nM
38 | CSCC[C@H](NC(=O)[C@H](CCC(=O)O)NC(=O)[C@H](CC(=O)O)NC(C)=O)C(=O)N[C@@H](CCC(=O)O)C(=O)N[C@@H](CCC(=O)O)C(=O)NC(C=O)CC(F)F (stereo partly drawn) [Compound 1n] (Ac-DEMEE[X3]-aldehyde) | – | – | IC50 [1]: 148 nM
39 | CCC(C)[C@H](NC(=O)[C@@H](NC(=O)[C@H](CCC(=O)O)NC(=O)CCC(=O)O)C(c1ccccc1)c1ccccc1)C(=O)N[C@@H](CC1CCCCC1)C(=O)NC(CC(F)F)C(=O)NS(=O)(=O)c1ccccc1 (stereo partly drawn) [Compound 1o] (Suc-E[Dip][Ile(3ξ)][Cha]-X6) | – | – | IC50 [1]: 800 nM
